Data published in patent US11207366B2, “Traditional Chinese medicine composition comprising dried tangerine peels and dark tea for treating diabetes and preparation method thereof” (priority 2017, dated 2021).

System: diabetes patients
Experiment: Clinical experiment examples: fasting blood glucose of diabetes patients
Format: in vivo, human
Text: In another preferred embodiment of the present invention, the tea bricks after the above-mentioned about 2-year aging time are pulled apart and left in the air for about 30 days for oxidization. After the loosen tea leaves are oxidized for about 30 days, they are smashed into small particles or powders. And then another 5 parts (by weight) to 15 parts (by weight) of blended tangerine peels are taken and smashed into particles or powders. The above-mentioned tangerine peels, in particles or powders form, are blended into the above-mentioned black teas, in particles or powders form. Then the composition can be used as the traditional Chinese medical tea drinks for treating diabetes. General patients can drink the tea once or twice a day, each time 5-10 grams. Severe patients can drink twice a day, each time 10-20 grams.
Clinical Experiment Examples
Oct. 23, 2016: fasting blood glucose was 8.9 mml. The patient administrated metformin, three times a day, one tablet each time before meals.
Oct. 29, 2016: the value of fasting blood glucose was 6.8 mml, and the traditional Chinese medicine tea drinks of the present invention were administrated twice a day, each time 5 grams of the tea, with the continuation of administration of the metformin.
Subject: The patient is a person, who has a long history of diabetes. Before drinking the traditional Chinese medicine tea drinks of the present invention, the subject administrated hypoglycemic agents (metformin) for long before each meal, each time 2 tablets. Test results (measured on empty stomach at 7 o'clock in the morning)
From the above case, it can be seen that only administration of metformin to decrease blood glucose would not lead to a good controlling effect, and the average value of blood glucose was 12.3 mml with a large fluctuation that varies from the 8.5 mml to the highest 19.5 mml After drinking the traditional Chinese medicine tea drinks of the present invention (brewing 1 to 2 bags every day), the average value of blood glucose was 8.6 mml with a steady trend where the values were fluctuated within 7-10 mml without the occurrence of very high measured results.

`CN(C)C(=N)N=C(N)N` [metformin] showed a fasting blood glucose (Case 1, Oct. 23, 2016, metformin three times a day, one tablet before meals (first day reported)) of 8.9 mml, a fasting blood glucose (Case 1, Oct. 24, 2016, metformin only) of 7.5 mml and a fasting blood glucose (Case 1, Oct. 25, 2016, metformin only) of 7.4 mml. The fasting blood glucose (Case 1, Oct. 26, 2016, metformin only, big dinner and wine the evening before) was 8.3 mml, the fasting blood glucose (Case 1, Oct. 29, 2016, on metformin, day the tea drinks (twice a day, 5 grams) were started) was 6.8 mml and the “measured average value of blood glucose” value (Case 1, metformin, 9 days from October 20 to October 29) was 7.5 mml. The “blood glucose measured on empty stomach at 7 o'clock in the morning” value (“blood glucose measured on empty stomach” below) (Case 2, metformin only (2 tablets before each meal), Aug. 24, 2016) was 9.4 mml, the “blood glucose measured on empty stomach” value (Case 2, metformin only, Aug. 28, 2016) was 9.9 mml and the “blood glucose measured on empty stomach” value (Case 2, metformin only, Dec. 2, 2016) was 11.8 mml. The “blood glucose measured on empty stomach” value (Case 2, metformin only, Dec. 9, 2016) was 12.6 mml, the “blood glucose measured on empty stomach” value (Case 2, metformin only, Dec. 14, 2016) was 11.9 mml and the “blood glucose measured on empty stomach” value (Case 2, metformin only, Dec. 18, 2016) was 12.3 mml. The “blood glucose measured on empty stomach” value (Case 2, metformin only, Dec. 24, 2016) was 12.5 mml, the “blood glucose measured on empty stomach” value (Case 2, metformin only, Dec. 28, 2016) was 14.7 mml and the “blood glucose measured on empty stomach” value (Case 2, metformin only, Jan. 2, 2017) was 13.3 mml. The “blood glucose measured on empty stomach” value (Case 2, metformin only, Jan. 6, 2017) was 11.8 mml, the “blood glucose measured on empty stomach” value (Case 2, metformin only, Nov. 1, 2016) was 14.5 mml and the “blood glucose measured on empty stomach” value (Case 2, metformin only, Nov. 5, 2016) was 13.4 mml. For the same compound, the “blood glucose measured on empty stomach” value (Case 2, metformin only, Nov. 10, 2016) was 11.1 mml, the “blood glucose measured on empty stomach” value (Case 2, metformin only, Nov. 13, 2016) was 13 mml and the “blood glucose measured on empty stomach” value (Case 2, metformin only, Nov. 18, 2016) was 14 mml. The “blood glucose measured on empty stomach” value (Case 2, metformin only, Nov. 20, 2016) was 8.5 mml, the “blood glucose measured on empty stomach” value (Case 2, metformin only, Nov. 27, 2016) was 9.4 mml and the “blood glucose measured on empty stomach” value (Case 2, metformin only, Oct. 1, 2016) was 11 mml. The “blood glucose measured on empty stomach” value (Case 2, metformin only, Oct. 4, 2016) was 12.7 mml, the “blood glucose measured on empty stomach” value (Case 2, metformin only, Oct. 11, 2016) was 15.9 mml and the “blood glucose measured on empty stomach” value (Case 2, metformin only, Oct. 24, 2016) was 19.5 mml. The “blood glucose measured on empty stomach” value (Case 2, metformin only, Sep. 3, 2016) was 12.5 mml, the “blood glucose measured on empty stomach” value (Case 2, metformin only, Sep. 11, 2016) was 8.7 mml and the “blood glucose measured on empty stomach” value (Case 2, metformin only, Sep. 23, 2016) was 11.6 mml. The “average value of blood glucose” value (Case 2, only administration of metformin) was 12.3 mml.
